Consider two compounds from US10265302B2, “Compound useful for the treatment of nonsense-mutation-mediated diseases and pharmaceutical composition comprising said compound” (UNIVERSITE DE LILLE, priority 2010, dated 2019).

The subject of data set [1] is NMD (Firefly luciferase mRNA tethered with MS2-UPF fusion protein). The data set can be described thus: NMD inhibition using Firefly luciferase in HeLa cells. Conditions: 10 μmol/l of G07, versus control wells. Format: cell-based. From the text:
The presence of one of the following UPF proteins (UPF1, UPF2, UPF3 (also called UPF3a) or UPF3X (also called UPF3b)) on the 3′UTR part of an mRNA, activates NMD on this particular mRNA. When an UPF protein is located downstream from a normal stop codon, said normal stop codon is recognized as a PTC. Consequently, the mRNA comprising the UPF protein will be degraded through NMD.
HeLa cell-line expressing Firefly luciferase mRNA were used. Firefly luciferase mRNA harbors MS2 binding sites in the 3′UTR. The above-mentioned cells further contain a fusion protein which consists in said MS2 protein and one of the four UPF proteins. This fusion protein enables UPF positioning downstream from the normal stop codon (i.e. on the 3′UTR part of this mRNA). Accordingly, the normal stop codon is recognized as a PTC. Consequently, NMD is activated and degrades Firefly luciferase mRNA.
Luciferase activity in the above-mentioned cells is thus directly linked to NMD activity.
HeLa cells were cultured in DMEM (Gibco) supplemented with 10% FBS and containing 10 μmol/l of G07.

For data set [2], the system named is P53 mRNA (UGA PTC at codon 196) in Calu-6 cells. The data set can be described thus: P53 mRNA level in Calu-6 cells by RT-PCR. It counts as cell-based.
Description: RNAs of said Calu-6 cells were reverse transcribed and amplified through PCR (RT-PCR) in the presence of a radioactive labeling nucleotide in order to measure P53 mRNA and GAPDH mRNA levels (GAPDH being used as a loading control). […] Amplified reverse transcribed mRNAs were loaded on an acrylamide gel and submitted to electrophoresis. Acrylamide gel was then dried on Whatman paper and applied on a phosphoscreen (Kodak). A Personal Molecular Imager (Bic-Rad) was used to quantify amplified radiolabelled species. Calu-6 cells were incubated with growing concentrations of G07 in DMSO during about twenty hours. This was carried out in order to confirm NMD inhibition activity of G07. After incubation, RNAs were purified by using TriReagent (MRC) and then reverse-transcribed into cDNA which can be PCR amplified in presence of a radiolabelled nucleotide.
Thus, an increasing quantity of P53 mRNA results from stabilization thereof. […] GAPDH (Glyceraldehyde 3-phosphate deshydrogenase) mRNA was amplified in order to normalize the measurement of P53 mRNA between two lanes.
For data set [3], the system named is P53 protein in Calu-6 cells. The data set can be described thus: P53 and P21 protein in Calu-6 cells by Western blot. It counts as cell-based. As to the method:
Moreover, G07 enables the synthesis of a truncated P53 protein and a full-length P53 protein in Calu-6 cells. G07 is thus different from the molecules disclosed in WO 2008/101935. Regarding the molecules disclosed in the above-mentioned document, only the truncated protein has been detected. Protein extracts of Calu-6 cells incubated or not with G07 were loaded on an electrophoresis gel and then transferred on a nitrocellulose membrane in order to detect P53 protein after incubation with an anti-P53 antibody (an anti-P53 antibody is an antibody directed against the amino terminal part of P53 (Santa Cruz)).
When P53 protein is synthesized, P53 activates P21 expression. […] Thus, P53 protein synthesized thanks to G07 induces P21 expression as WT P53 protein does. Consequently, the Applicants have thus confirmed that G07 enables the synthesis of a functional full-length P53 protein.
Background: Immunoblotting shows a protein as a band on a membrane.

The subject of data set [4] is MOR mRNA (MOR gene with NMD-activating nonsense-mutation). The data set can be described thus: In vivo NMD inhibition in KIM mice (MOR mRNA in brain). More on the design: species or system mouse. Particulars: 1Q and 2Q (0.2 and 2 mg/kg) injected in DMSO, 24 hours after injection. On the procedure:
In KIM mice, MOR gene harbors a NMD-activating nonsense-mutation. MOR gene is expressed in nervous central system. Solutions containing 0.2, 2 or 20 mg/kg of G07 (1Q, 2Q or 3Q respectively) dissolved in DMSO were injected into KIM mice. A control group consists of animals treated with pure DMSO. Animals were then euthanized 6, 24 or 32 hours after injection. RNAs extracted from brain homogenates were purified using TriReagent (MRC) and then analyzed as described with reference to FIG. 2. The difference between the experiments described with reference to FIG. 2 is that in the present case the mRNAs analyzed are the mRNA coding for MOR gene and the mRNA coding for the GAPDH gene used as a control to quantify measured MOR mRNA. The first 3 wells from the left correspond to a half dilution of a sample coming from a wild-type mouse brain. These 3 wells were used to check the PCR conditions which have to be quantitatively useful. […] The same technique as described with reference to FIG. 2 was used except the fact that RNA comes from KIM mice brains. Some of these KIM mice were injected with G07.

Data set [5] relates to CFTR mRNA (PTC at position 1282) in IB3 cells. The data set can be described thus: NMD inhibition in IB3 cells (CFTR mRNA by RT-PCR). It counts as cell-based. Conditions: increasing concentrations, 20 hours. On the procedure: IB3 cells harbor a […] in position 1282 in place of the tryptophan codon of the CFTR gene.
IB3 cells (ATCC) were incubated in DMSO solutions containing pure DMSO (as a control) or increasing G07 concentrations, respectively, during 20 hours.
RNAs obtained after incubation were purified and a RT-PCR was performed to measure the amount of CFTR mRNA (containing a PTC) and the amount of GADPH mRNA (used as a control).

For a further data set, the system named is CFTR in 6-CFSMEo- cells. The data set can be described thus: Iodide efflux in 6-CFSMEo- cells (SPQ fluorescence). Format: cell-based. Particulars: 6-CFSMEo- cells, 0.2, 1, 5 and 25 μM; forskolin 20 μM and IBMX 200 μM. As to the method: 6-CFSMEo− cells harbor a PTC in place of the glutamine 2 codon of the CFTR gene.
6-CFSMEo^− cells were seeded in 96-well plates and loaded overnight with 10 mM of the halide-sensitive fluorophore dye 6-methoxy-N-(3-sulfopropyl)-quinolinium (SPQ, Invitrogen). Cells were washed twice with iodide buffer (135 mM NaI, 2.4 mM K2HPO4, 0.6 mM KH2PO4, 1 mM MgSO4, 1 mM CaSO4, 10 mM dextrose and 10 mM Hepes, pH 7.3) and then incubated in iodide buffer for 30 min. After basal fluorescence was measured for 2 min, the iodide buffer was replaced with nitrate buffer (with 135 mM NaNO3 instead of NaI) containing 20 μM of forskolin and 200 μM of IBMX, and fluorescence was further measured for 10 minutes. The fluorescence intensities were measured every 15 seconds using the Tristar LB 941 microplate reader (Berthold) equipped with a 340 nm excitation filter and a 450 nm emission filter. […] G07 concentrations used were 0.2 μM, 1 μM, 5 μM and 25 μM, respectively. The increase in iodide efflux is shown as mean±SEM from at least four independent assays. It refers to the fluorescence at the reading time; F0 refers to the average fluorescence before addition of the above-mentioned nitrate buffer containing 20 μM of forskolin and 200 μM of IBMX.

The subject of data set [6] is PTC-containing dystrophin gene in DMD cells. The data set can be described thus: Dystrophin mRNA in DMD cells by RT-PCR. It counts as cell-based. On the procedure: As regards the results of FIG. 11 a, DMD cells were incubated with increasing amounts of […] molecule or as a control with DMSO. RNAs were purified using RNazol reagent (MRC) and reverse transcribed using Superscript. II (Life technologies) and random hexamer. PCR using radiolabelled CTP was performed in order to amplify either dystrophin or GAPDH cDNA. Amplification products were loaded on 5% polyacrylamide gel. The gel was then dried and exposed on phosphoscreen in order to allow quantification of each amplification species by Personal Molecular Imager (Biorad).

Data set [7] shares this test system. The data set can be described thus: Dystrophin protein in DMD cells by Western blot. It counts as cell-based. On the procedure: As regards the results of FIG. 11 b, DMD cells were incubated with increasing amounts of […] molecule or as a control with DMSO. Protein extracts from these cells were loaded on 10% SDS-PAGE and transferred on nitrocellulose membrane. Nitrocellulose membrane was then exposed to primary antibody (either anti-dystrophin antibody raised against the amino-part of dystrophin protein (Santa-Cruz), or anti-tubulin antibody in order to specify the loading protein amount of each lane.

The conditions of data set [8]: after oral administration; cited from earlier work.
Another data set has as its system NMD. Conditions: cited from earlier work.

`CC(C)c1ccc2oc3nc(N)c(C(=O)O)cc3c(=O)c2c1` [G07, 2-amino-7-isopropyl-5-oxo-5H-chromeno[2,3-b]pyridine-3-carboxylic acid]: the “luciferase activity (NMD inhibition)” value in data set [1] was “higher than in control wells”. Also, the “NMD inhibition / P53 mRNA stabilization” value in data set [2] (25 μM) is “inhibits NMD and enables a stabilization of P53 mRNA”. Besides, in [2] (growing concentrations in DMSO, about twenty hours), the “quantity of P53 mRNA (normalised to GAPDH mRNA)” value was “increased quantity of P53 mRNA”. For the same compound, the “P21 protein (functionality of P53)” value in [3] (25 and 125 μM) was “presence of P21”. Also, the “P53 protein synthesis (Western blot)” value in [3] (about 20 hours incubation) was “full-length and truncated P53 proteins are synthesized”. Besides, in data set [4], the “MOR mRNA level in brain” value was “stabilization of MOR mRNA”. In [5], the “ratio amount of CFTR mRNA/amount of GAPDH mRNA” value was “increased stabilization of CTFR mRNA”. For the same compound, in the data set on CFTR in 6-CFSMEo- cells, the iodide efflux entry is reported as “dose-response effect”. Further, the “concentration of maximum efficacy, dystrophin mRNA” value in [6] was 5 µM. The “dystrophin mRNA (RT-PCR)” value in data set [6] (increasing amounts) is “stabilization of dystrophin mRNA”. Further, the “concentration of maximum efficacy, dystrophin protein” value in data set [7] was 5 µM. Also, the “dystrophin protein (Western-blot)” value in data set [7] (increasing amounts) is reported as “synthesis of dystrophin protein”. In addition, the tissue distribution result in data set [8] is “preferably distributed in liver, kidneys and intestine”.

On to `O=C(O)c1cccc(-c2noc(-c3ccccc3F)n2)c1` [PTC124, 3-[5-(2-fluorophenyl)-1,2,4-oxadiazol-3-yl]benzoïc acid], for which, in the data set on NMD, the NMD inhibiting activity result is recorded as “no NMD inhibiting activity”.
